Common to all, as to assay type: in vivo
Conditions in all cases: mice

The test system of one assay is B16 melanoma. The experiment in a line: Antitumor effect against B16 melanoma, QD 1→9 ip. As for the experimental part: (§1) Antitumor activity of representative compounds of the present invention was determined using in vivo murine transplantable P388 leukemia and B16 melanoma models.
B16 melanoma: male BDF1 mice were implanted with 0.5 ml of a 10% tumor brei intraperitoneally.
(§2) Test materials were dissolved in 0.9% saline containing 10% dimethyl sulfoxide and graded doses of them were administered to mice intraperitoneally 24 hrs after tumor implantation. Two dosing schedules were used for the P388 leukemia experiment: once daily on day 1 through day 3 (QD 1→3); and once daily on day 1 through day 9(QD 1→9). The QD 1→9 schedule was used for the B16 melanoma experiment.
(§3) Antitumor activity is evaluated as the increase in median survival time (MST) of treated (T) and control (C) animals for various dosage regimens expressed as a percentage ratio (T/C %=MST of treated.div.MST of control×100). For both in vivo P388 leukemia and in vivo B16 melanoma models, values for percentage ratios of 125 and above indicate significant antitumor effect.

Assay [1] concerns P388 leukemia. The experiment in a line: Antitumor effect against P388 leukemia, QD 1→3 ip. On the procedure:
as §1
(§4) P388 leukemia: female CDF1 and male BDF1 mice were inoculated by intraperitoneal injection of 0.8 ml diluted ascitic fluid containing 10^6 cells.
as §2, §3

In assay [2] the test system is P388 leukemia. Put plainly: Antitumor effect against P388 leukemia, QD 1→9 ip. On the procedure:
as §1, §4, §2, §3

Each structure is given as a SMILES string.

With `CCCCCCC/C=C/C=C/C(=O)N[C@H](C(=O)N[C@H]1C[C@@H](O)CCNC(=O)/C=C/[C@H](C)NC1=O)[C@@H](C)O` [BU-2867T A], the “MST (% T/C)” value was 116 % T/C in the assay on B16 melanoma (1 mg/kg/day); “Tox” with B16 melanoma (2 mg/kg/day); 97 % T/C in the assay with B16 melanoma (.13 mg/kg/day); 100 % T/C in the assay on B16 melanoma (.25 mg/kg/day); 113 % T/C with B16 melanoma (.5 mg/kg/day); 145 % T/C in the assay with P388 leukemia [1] (1 mg/kg/day). Also, the “MST (% T/C)” value with P388 leukemia [1] (3 mg/kg/day) is “Tox”; in the assay with P388 leukemia [1] (.3 mg/kg/day) it was 130 % T/C; in the assay on P388 leukemia [2] (0.13 mg/kg/day) it was 130 % T/C; in the assay with P388 leukemia [2] (0.25 mg/kg/day) it was 150 % T/C; with P388 leukemia [2] (0.5 mg/kg/day) it was 155 % T/C; in the assay with P388 leukemia [2] (0.63 mg/kg/day), 110 % T/C. Also, the “MST (% T/C)” value in the assay with P388 leukemia [2] (1 mg/kg/day) is given as 190 % T/C; in the assay on P388 leukemia [2] (2 mg/kg/day) it was “Tox”.

Consider `CCCCCCCCCC(=O)N[C@H](C(=O)NC1CC(O)CCNC(=O)/C=C/C(C)NC1=O)[C@@H](C)O` (some centres unmarked) [Example 2, n-Decanoyl-III], for which the “MST (% T/C)” value in the assay on P388 leukemia [1] (10 mg/kg/day) is 64 % T/C.

As for `CCCCCCCCCCCC(=O)N[C@H](C(=O)NC1CC(O)CCNC(=O)/C=C/C(C)NC1=O)[C@@H](C)O` (some centres unmarked) [Example 1, n-Dodecanoyl-III], the “MST (% T/C)” value came out at 130 % T/C in the assay with P388 leukemia [1] (1 mg/kg/day) and 150 % T/C in the assay on P388 leukemia [2] (1 mg/kg/day).

On to `CCCCCCCCOc1ccc(C(=O)N[C@H](C(=O)NC2CC(O)CCNC(=O)/C=C/C(C)NC2=O)[C@@H](C)O)cc1` (some centres unmarked) [Example 6, p-n-Octyloxybenzoyl-III], for which the “MST (% T/C)” value in the assay on P388 leukemia [1] (1 mg/kg/day) is 150 % T/C; with P388 leukemia [1] (3 mg/kg/day), “Tox”; in the assay with P388 leukemia [2] (0.13 mg/kg/day), 140 % T/C; with P388 leukemia [2] (0.25 mg/kg/day), 150 % T/C; in the assay with P388 leukemia [2] (0.63 mg/kg/day), 120 % T/C; in the assay with P388 leukemia [2] (1 mg/kg/day) it was “Tox”.

Take `CCCCCC=CCCC=CC=CC(=O)NC(C(=O)NC1CC(O)CCNC(=O)C=CC(C)NC1=O)C(C)O` (centres unmarked) [BU-2867T B]: the “MST (% T/C)” value in the assay with B16 melanoma (2 mg/kg/day) was “Tox”; with P388 leukemia [2] (0.25 mg/kg/day) it was 130 % T/C; in the assay with P388 leukemia [2] (0.63 mg/kg/day) it was 130 % T/C; in the assay with P388 leukemia [2] (1 mg/kg/day) it was 170 % T/C; in the assay with P388 leukemia [2] (2 mg/kg/day), 180 % T/C; in the assay on P388 leukemia [2] (4 mg/kg/day), “Tox”.

Turning to `CCCCCCCCCCCCCCCC(=O)NC(C(=O)NC1CC(O)CCNC(=O)C=CC(C)NC1=O)C(C)O` [Example 10, Palmitoyl-L-Threonyl-II], the “MST (% T/C)” value turned out to be 114 % T/C in the assay on P388 leukemia [1] (1 mg/kg/day), 119 % T/C in the assay on P388 leukemia [1] (3 mg/kg/day) and 138 % T/C in the assay on P388 leukemia [1] (10 mg/kg/day).

Turning to `CCCCCCCCCCCCCC(=O)N[C@H](C(=O)NC1CC(O)CCNC(=O)/C=C/C(C)NC1=O)[C@@H](C)O` (some centres unmarked) [Example 3, n-Tetradecanoyl-III], the “MST (% T/C)” value in the assay on P388 leukemia [1] (10 mg/kg/day) stood at 55 % T/C; in the assay on P388 leukemia [2] (1 mg/kg/day) it was 150 % T/C; in the assay on P388 leukemia [2] (2 mg/kg/day) it was 150 % T/C.

In the case of `CCCCCCCCCC=CC=CC(=O)NC(C(=O)NC1CC(O)CCNC(=O)C=CC(C)NC1=O)C(C)O` (centres unmarked) [BU-2867T C], the “MST (% T/C)” value with B16 melanoma (4 mg/kg/day) is “Tox”; in the assay with P388 leukemia [1] (10 mg/kg/day) it was 57 % T/C; with P388 leukemia [2] (0.13 mg/kg/day), 130 % T/C; in the assay on P388 leukemia [2] (0.25 mg/kg/day) it was 160 % T/C; in the assay with P388 leukemia [2] (1 mg/kg/day), 170 % T/C; with P388 leukemia [2] (4 mg/kg/day) it was 65 % T/C.

(Values after patent US4789731A, “Semi-synthetic peptide antibiotics” (Bristol-Myers Company, priority 1987, dated 1988).)
